# Experimental data: patent US10959955B1 (RHOSHAN PHARMACEUTICALS, INC., priority 2017, dated 2021)
# Columns and labels:
# [1] = test system: Thromboxane B2; settings: in 5 minutes of post bolus injection; 5 ml of 100 mg/ml ASA injected in less than 2 minutes; cited from earlier work
# [2] = cited from earlier work
# [3] = physchem
# Experimental: The batch volume was made up to 100 ml with addition of 70/30 TBA/water. […] 5 ml aliquots were placed in flint vials and lyophilized. Upon completion of lyophilization, the contents of the vial were reconstituted with 5 ml of Water for Injection.
# [4] = intravenous vs oral; cited from earlier work
# [5] = Bulk solution stability of Example 3C at 25° C.; type: physicochemical
# Experimental: All three solutions were filtered and 5 ml each placed in a Type I flint vials and lyophilized. […] The lyophilized cakes in all vials were shrunken and collapsed. […] Since lyophilization of the ASA-lysine solution was carried out at about −30° C., all water was removed by sublimation at this low temperature. It is not known whether degradation took place during the lyophilization or during the preparation of the bulk solution or combination of both. Therefore, we have investigated the bulk solution stability of example 3C at 25° C.
# [6] = test system: platelet aggregation; settings: following oral dosing; cited from earlier work
# [7] = Tonicity and pH of reconstituted solutions of ASA; type: physicochemical
# Description: Since the aspirin product will be administered via an IV bolus route, tonicity of the final reconstituted solution is acritical factor to avoid pain at the injection site.
# [8] = oral tablets; cited from earlier work
# [9] = Reconstitution of ASA lyophile with various basifying agents; type: physicochemical; settings: basifying agent diluents of examples 13 and 14, without polysorbate 80
# Experimental: One aspect of this invention was to produce a stable lyophilized product and a solvent system with sufficient bulk solution stability to withstand an aseptic processing and lyophilization process. The lyophilized products we have manufactured in most of these studies were made with 80% TBA/20% to 60% TBA/40% water solvent system and the bulk solution for lyophilization stable for 24 hours with minimal degradation. We have achieved this goal. […] The reconstitution studies were done by reconstituting a 100 mg vial with 5 ml of solution containing a buffer or a basifying agent or a combination of both.
# [10] = pH and appearance of bulk and reconstituted solutions of ASA co-lyophilized with bases in TBA/water; type: physicochemical; settings: 20 mg/ml aspirin in 80% TBA/20 water
# Description: The pH of the solution was raised to 6.5 using 1N sodium hydroxide. Phase separation was observed, probably due to salting out of inorganic base from TBA/Water system. In the next trial, we first raised the pH of the solution to 5.0 using 1N sodium hydroxide, and then sodium phosphate, dibasic to raise the pH to 6.5. Sodium phosphate, dibasic was used for a better control of pH. Since we still observed phase separation it appears that inorganic bases or buffers may not be compatible with a 80% TBA/20% water system. We may require more water, for example, 70% TBA/30% water in the system to dissolve the alkalinizing agents.
# The reconstituted solution pH was 4.71.
# In the next trial, we investigated incorporation of […] to facilitate complete neutralization. […] Arginine was, then, slowly added to the slurry to neutralize aspirin. […] The apparent pH of the bulk solution was 6.49. 5 ml aliquots placed in flint vials and lyophilized. Upon completion of lyophilization, the content of vial was reconstituted with 5 ml of Water for Injection. […] The reconstituted solution pH was 4.8.
# Based on the above studies, it was evident that larger amount of base is needed to neutralize ASA in the preferred solvent system. To incorporate more base in the bulk solution, we explored use of 60/40 TBA/water system as solvent for lyophilization. […] The apparent pH of the bulk solution was 6.31. […]
compound,measurement,setting,value
CC(=O)Oc1ccccc1C(=O)O.NCCCCC(N)C(=O)O [aspirin lysine salt],Thromboxane B2 inhibited,[1],greater than 95%
same,shelf life,[2]; Bayer sterile dry powder product,one year
NCCCC[C@H](N)C(=O)O [lysine],solubility,[3]; organic solvent or mixture,2000 µg/mL
o-acetylsalicylic acid [Aspirin],effectiveness of intravenously administered solution versus orally administered equal amount,[4],four times as high
same,Area % of Salicylic Acid,[5]; 4 hours,about 9 Area %
same,Area % of Salicylic Acid,[5]; Initial,about 3 Area %
same,onset of inhibition of platelet aggregation,[6],approximately 40 minutes
same,pH of the solution,[2]; aqueous aspirin solution,about 2.5
same,time to 10% of potency loss,[2]; concentrated aqueous bulk solution,about 1.3 hours
same,degradation rate,[2]; pH 2.5,about 2 % per day
same,Osmolality (m.Osm/Kg),"[7]; 12 mg/mL Na2HPO4 and 27 mg/mL of Tris buffer with 0.05% Tween80, 10 mL, ASA 50 mg/mL",717 m.Osm/Kg
same,Osmolality (m.Osm/Kg),"[7]; 17.5 mg/mL Tris Buffer with 0.05% Tween80, 20 mL, ASA 25 mg/mL",269 m.Osm/Kg
same,Osmolality (m.Osm/Kg),"[7]; 20 mg/mL Na2HPO4 with 0.05% Tween80, 25 mL, ASA 20 mg/mL",481 m.Osm/Kg
same,Osmolality (m.Osm/Kg),"[7]; 30 mg/mL of lysine and 7.5 mg/mL of Tris buffer, 20 mL, ASA 25 mg/mL",338 m.Osm/Kg
same,Osmolality (m.Osm/Kg),"[7]; 34 mg/mL Tris Buffer with 0.05% Tween80, 10 mL, ASA 50 mg/mL",549 m.Osm/Kg
same,Osmolality (m.Osm/Kg),"[7]; 34 mg/mL Tris Buffer, 10 mL, ASA 50 mg/mL",540 m.Osm/Kg
same,Osmolality (m.Osm/Kg),"[7]; 40 mg/mL L-Lysine, 20 mL, ASA 25 mg/mL",380 m.Osm/Kg
same,Osmolality (m.Osm/Kg),"[7]; 40 mg/mL of L-Lysine with 0.05% Tween80, 20 mL, ASA 25 mg/mL",388 m.Osm/Kg
same,Osmolality (m.Osm/Kg),"[7]; 50 mg/mL Na2HPO4 with 0.05% Tween80, 10 mL, ASA 50 mg/mL",1172 m.Osm/Kg
same,Osmolality (m.Osm/Kg),"[7]; 68 mg/mL Tris Buffer with 0.05% Tween80, 10 mL, ASA 100 mg/mL",1060 m.Osm/Kg
same,Osmolality (m.Osm/Kg),"[7]; 68 mg/mL Tris Buffer with 0.05% Tween80, Aspirin API 1 g, 10 mL, ASA 100 mg/mL",1036 m.Osm/Kg
same,initial onset of pain relief,[8],about 30 minutes
same,appearance of reconstituted solution,[9],did not show any haziness
same,apparent pH of the bulk solution,[10],2.9
tris(hydroxymethyl)aminomethane,solubility,"[3]; 70/30 TBA/water, neat free base without ASA",5000 µg/mL
